Source: US9290777B2, “Putative cytokinin receptor and methods for use thereof” (NATIONAL UNIVERSITY OF SINGAPORE, priority 2007, dated 2016)
“Also recorded” adds a separate entry of the source.

Tested on: STM
Assay: qRT-PCR of cytokinin responsive gene after BA pulse, fold change vs untreated wild type
Type: cell-based, Arabidopsis thaliana

c1ccc(CNc2ncnc3nc[nH]c23)cc1 [benzyladenine]
STM transcripts in OE lines compared to untreated wild type (5 μM BA, 1 h, OE lines (e.g. OE1, OE12), listed as BA): less than a two fold change; also recorded: no significant difference | STM fold change (BA 0.01 μM, 5 min, AS1, ↑ up): 3.23↑ | STM fold change (BA 0.01 μM, 5 min, AS8, ↑ up): 5.2↑ | STM fold change (BA 0.01 μM, 5 min, AS21, ↑ up): 7.1↑ | STM fold change (BA 0.01 μM, 5 min, OE1, ↓ down): 3.41↓ | STM fold change (BA 0.01 μM, 5 min, OE12, ↓ down): 4.97↓ | STM fold change (BA 0.01 μM, 5 min, OE18, ↓ down): 6.23↓ | STM fold change (BA 0.01 μM, 5 min, Wild type, ↑ up): 2.45↑ | STM fold change (BA 0.01 μM, 15 min, AS1, ↑ up): 3.67↑ | STM fold change (BA 0.01 μM, 15 min, AS8, ↑ up): 5.58↑ | STM fold change (BA 0.01 μM, 15 min, AS21, ↑ up): 7.48↑ | STM fold change (BA 0.01 μM, 15 min, OE1, ↓ down): 3.23↓ | STM fold change (BA 0.01 μM, 15 min, OE12, ↓ down): 4.65↓ | STM fold change (BA 0.01 μM, 15 min, OE18, ↓ down): 6.02↓ | STM fold change (BA 0.01 μM, 15 min, Wild type, ↑ up): 2.54↑ | STM fold change (BA 0.01 μM, 30 min, AS1, ↑ up): 3.91↑ | STM fold change (BA 0.01 μM, 30 min, AS8, ↑ up): 5.95↑ | STM fold change (BA 0.01 μM, 30 min, AS21, ↑ up): 7.69↑ | STM fold change (BA 0.01 μM, 30 min, OE1, ↓ down): 3.01↓ | STM fold change (BA 0.01 μM, 30 min, OE12, ↓ down): 4.31↓ | STM fold change (BA 0.01 μM, 30 min, OE18, ↓ down): 5.91↓ | STM fold change (BA 0.01 μM, 30 min, Wild type, ↑ up): 3.01↑ | STM fold change (BA 0.01 μM, 1 h, AS1, ↑ up): 4.1↑ | STM fold change (BA 0.01 μM, 1 h, AS8, ↑ up): 6.06↑ | STM fold change (BA 0.01 μM, 1 h, AS21, ↑ up): 8.05↑ | STM fold change (BA 0.01 μM, 1 h, OE1, ↓ down): 2.81↓ | STM fold change (BA 0.01 μM, 1 h, OE12, ↓ down): 3.96↓ | STM fold change (BA 0.01 μM, 1 h, OE18, ↓ down): 5.82↓ | STM fold change (BA 0.01 μM, 1 h, Wild type, ↑ up): 3.2↑ | STM fold change (BA 0.1 μM, 5 min, AS1, ↑ up): 4.24↑ | STM fold change (BA 0.1 μM, 5 min, AS8, ↑ up): 6.22↑ | STM fold change (BA 0.1 μM, 5 min, AS21, ↑ up): 8.21↑ | STM fold change (BA 0.1 μM, 5 min, OE1, ↓ down): 3.2↓ | STM fold change (BA 0.1 μM, 5 min, OE12, ↓ down): 3.81↓ | STM fold change (BA 0.1 μM, 5 min, OE18, ↓ down): 5.79↓ | STM fold change (BA 0.1 μM, 5 min, Wild type, ↑ up): 3.56↑ | STM fold change (BA 0.1 μM, 15 min, AS1, ↑ up): 4.49↑ | STM fold change (BA 0.1 μM, 15 min, AS8, ↑ up): 6.39↑ | STM fold change (BA 0.1 μM, 15 min, AS21, ↑ up): 8.36↑ | STM fold change (BA 0.1 μM, 15 min, OE1, ↓ down): 3.14↓ | STM fold change (BA 0.1 μM, 15 min, OE12, ↓ down): 3.73↓ | STM fold change (BA 0.1 μM, 15 min, OE18, ↓ down): 5.61↓ | STM fold change (BA 0.1 μM, 15 min, Wild type, ↑ up): 3.68↑ | STM fold change (BA 0.1 μM, 30 min, AS1, ↑ up): 4.79↑ | STM fold change (BA 0.1 μM, 30 min, AS8, ↑ up): 6.63↑ | STM fold change (BA 0.1 μM, 30 min, AS21, ↑ up): 8.58↑ | STM fold change (BA 0.1 μM, 30 min, OE1, ↓ down): 2.92↓ | STM fold change (BA 0.1 μM, 30 min, OE12, ↓ down): 3.49↓ | STM fold change (BA 0.1 μM, 30 min, OE18, ↓ down): 5.34↓ | STM fold change (BA 0.1 μM, 30 min, Wild type, ↑ up): 3.85↑ | STM fold change (BA 0.1 μM, 1 h, AS1, ↑ up): 4.97↑ | STM fold change (BA 0.1 μM, 1 h, AS8, ↑ up): 6.94↑ | STM fold change (BA 0.1 μM, 1 h, AS21, ↑ up): 8.87↑ | STM fold change (BA 0.1 μM, 1 h, OE1, ↓ down): 2.76↓ | STM fold change (BA 0.1 μM, 1 h, OE12, ↓ down): 3.01↓ | STM fold change (BA 0.1 μM, 1 h, OE18, ↓ down): 5.01↓ | STM fold change (BA 0.1 μM, 1 h, Wild type, ↑ up): 3.96↑ | STM fold change (BA 1.0 μM, 5 min, AS1, ↑ up): 5.53↑ | STM fold change (BA 1.0 μM, 5 min, AS8, ↑ up): 7.8↑ | STM fold change (BA 1.0 μM, 5 min, AS21, ↑ up): 8.89↑ | STM fold change (BA 1.0 μM, 5 min, OE1, ↓ down): 2.86↓ | STM fold change (BA 1.0 μM, 5 min, OE12, ↓ down): 2.89↓ | STM fold change (BA 1.0 μM, 5 min, OE18, ↓ down): 4.26↓ | STM fold change (BA 1.0 μM, 5 min, Wild type, ↑ up): 4.11↑ | STM fold change (BA 1.0 μM, 15 min, AS1, ↑ up): 5.78↑ | STM fold change (BA 1.0 μM, 15 min, AS8, ↑ up): 7.93↑ | STM fold change (BA 1.0 μM, 15 min, AS21, ↑ up): 9.02↑ | STM fold change (BA 1.0 μM, 15 min, OE1, ↓ down): 2.61↓ | STM fold change (BA 1.0 μM, 15 min, OE12, ↓ down): 2.56↓ | STM fold change (BA 1.0 μM, 15 min, OE18, ↓ down): 4.11↓ | STM fold change (BA 1.0 μM, 15 min, Wild type, ↑ up): 4.36↑ | STM fold change (BA 1.0 μM, 30 min, AS1, ↑ up): 5.83↑ | STM fold change (BA 1.0 μM, 30 min, AS8, ↑ up): 7.99↑ | STM fold change (BA 1.0 μM, 30 min, AS21, ↑ up): 9.25↑ | STM fold change (BA 1.0 μM, 30 min, OE1, ↓ down): 2.39↓ | STM fold change (BA 1.0 μM, 30 min, OE12, ↓ down): 2.87↓ | STM fold change (BA 1.0 μM, 30 min, OE18, ↓ down): 4.01↓ | STM fold change (BA 1.0 μM, 30 min, Wild type, ↑ up): 4.69↑ | STM fold change (BA 1.0 μM, 1 h, AS1, ↑ up): 6.21↑ | STM fold change (BA 1.0 μM, 1 h, AS8, ↑ up): 8.07↑ | STM fold change (BA 1.0 μM, 1 h, AS21, ↑ up): 9.66↑ | STM fold change (BA 1.0 μM, 1 h, OE1, ↓ down): 2.11↓ | STM fold change (BA 1.0 μM, 1 h, OE12, ↓ down): 2.62↓ | STM fold change (BA 1.0 μM, 1 h, OE18, ↓ down): 3.82↓ | STM fold change (BA 1.0 μM, 1 h, Wild type, ↑ up): 4.97↑ | STM fold change (BA 5.0 μM, 5 min, AS1, ↑ up): 6.01↑ | STM fold change (BA 5.0 μM, 5 min, AS8, ↑ up): 8.46↑ | STM fold change (BA 5.0 μM, 5 min, AS21, ↑ up): 9.33↑ | STM fold change (BA 5.0 μM, 5 min, OE1, ↓ down): 2.29↓ | STM fold change (BA 5.0 μM, 5 min, OE12, ↓ down): 2.49↓ | STM fold change (BA 5.0 μM, 5 min, OE18, ↓ down): 3.35↓ | STM fold change (BA 5.0 μM, 5 min, Wild type, ↑ up): 5.62↑ | STM fold change (BA 5.0 μM, 15 min, AS1, ↑ up): 6.21↑ | STM fold change (BA 5.0 μM, 15 min, AS8, ↑ up): 8.63↑ | STM fold change (BA 5.0 μM, 15 min, AS21, ↑ up): 9.44↑ | STM fold change (BA 5.0 μM, 15 min, OE1, ↓ down): 2.11↓ | STM fold change (BA 5.0 μM, 15 min, OE12, ↓ down): 2.13↓ | STM fold change (BA 5.0 μM, 15 min, OE18, ↓ down): 3.28↓ | STM fold change (BA 5.0 μM, 15 min, Wild type, ↑ up): 5.89↑ | STM fold change (BA 5.0 μM, 30 min, AS1, ↑ up): 6.43↑ | STM fold change (BA 5.0 μM, 30 min, Wild type, ↑ up): 5.99↑ | STM transcripts, dose dependence (BA 0.01-5 μM pulse, 5 min-1 h): dose-dependent increase
